Patent publication US20040023922A1, “Lipids for modulating immune response” (priority 2000, published 2004)

test system: Female Balb/c mice; assay: Adjuvanticity of lipids: serum anti-KLH IgA, IgG, IgM ELISA (Example 7); assay type: in vivo; conditions: serum day 7 after booster; 5 μl lipid + 45 μl saline + 50 μl KLH (2 mg/ml), week 0 and week 2; control KLH + Saline = 1
Method: The objective of this study was to investigate the adjuvanticity of 19 different lipids.
Female Balb/c mice, 6-8 weeks and weighing about 20-22 gms were used and maintained on a normal mouse diet throughout the study.
There were 22 groups of mice marked alphabetically from A-V. Group A (8 mice) was the negative control (KLH+Saline), Group B (8 mice) was the positive control (KLH+IFA). Groups C-V were the experimental groups containing 6 mice each. 100 μl of antigen preparation comprising of 5 μl lipid+45 μl saline+50 μl (2 mg/ml KLH) was administered to 20 groups of 6 mice each, on week 0 followed by a boost on week 2.
On day 7 and day 21 after the booster dose, the mice were tail bled, the serum separated, aliquoted and stored at 4° C.
The specific anti-KLH IgG and IgM antibody content of each individual serum sample was determined in an established ELISA assay and standardised against a positive control antiserum obtained by hyperimmunisation of mice with KLH (100 μg) in Freund's incomplete adjuvant. Plates were coated with KLH at 2 μg/ml and incubated with four twofold dilutions of samples (100 μl) at 37° C. for 2 hours. The initial dilution of serum samples was 1:50 for IgA assay and 1:100 for IgG and IgM assays. […] IgA and IgM were used at 1:1000 and IgG at 1:2000 for 2 hours at 37° C. The results were expressed as antibody units calculated from the standard curve obtained from pooled immune mouse serum given an arbitrary antibody value of 100,000 IgA units/ml and 1×10^6 IgG and IgM units/ml. The standard curve was diluted from 1:100 to 1:3200 for IgA, 1:4000 to 1:256,000 for IgG and 1:1000 to 1:32000 for IgM samples. The value for each sample dilution falling on standard curve was calculated and the mean taken as the value for the sample.
Results are given in the form of histograms (FIGS. 9 to 14), plotting the Ig response (units/ml) against the trial grouping. […] The number signifies multiples of the control response.

SMILES	Day 7 Results IgA, score as multiples of the control response
CCCCCCCCCCCCCCCCC(=O)OC[C@H](COP(=O)(O)O)OC(=O)CCCCCCCCCCCCCCCC [PAH, L-α-Phosphatidicacid, diheptadecanoyl]	5
CCCCCCCCCCCCCC(=O)OC[C@H](COP(=O)(O)O)OC(=O)CCCCCCCCCCCCC [PAM, L-α-Phosphatidicacid, dimyristoyl]	4
CCCCCCCCCCCCCCCC(=O)N[C@@H](CO[C@@H]1O[C@H](CO)[C@@H](O)[C@H](O)[C@H]1O)[C@H](O)CCCCCCCCCCCCCCC [PC, N-Palmitoyl dihydroglucocerebroside]	33
CCCCCCCCCCCCCCCCC(=O)OC[C@H](COP(=O)([O-])OCC[N+](C)(C)C)OC(=O)CCCCCCCCCCCCCCCC [PCH, L-α-Phosphatidylcholine, diheptadecanoyl]	18
CCCCCCCCCCCCCCC(=O)OC[C@H](COP(=O)([O-])OCC[N+](C)(C)C)OC(=O)CCCCCCCCCCCCCC [PCP, L-α-Phosphatidylcholine, dipentadecanoyl]	9
CCCCCCCCCCCCCCCCC(=O)OC[C@H](COP(=O)(O)OCCN)OC(=O)CCCCCCCCCCCCCCCC [PEH, L-α-Phosphatidylethanolamine, diheptadecanoyl]	4
CCCCCCCCCCCCCC(=O)OC[C@H](COP(=O)(O)OCCN)OC(=O)CCCCCCCCCCCCC [PEM, L-α-Phosphatidylethanolamine, dimyristoyl]	17

same assay, conditions: serum day 7 after booster; control KLH + Saline = 1

SMILES	Day 7 Results IgG, score as multiples of the control response	Day 7 Results IgM, score as multiples of the control response
CCCCCCCCCCCCCCCCC(=O)OC[C@H](COP(=O)(O)O)OC(=O)CCCCCCCCCCCCCCCC [PAH, L-α-Phosphatidicacid, diheptadecanoyl]	4	2
CCCCCCCCCCCCCC(=O)OC[C@H](COP(=O)(O)O)OC(=O)CCCCCCCCCCCCC [PAM, L-α-Phosphatidicacid, dimyristoyl]	5	1
CCCCCCCCCCCCCCCC(=O)N[C@@H](CO[C@@H]1O[C@H](CO)[C@@H](O)[C@H](O)[C@H]1O)[C@H](O)CCCCCCCCCCCCCCC [PC, N-Palmitoyl dihydroglucocerebroside]	2	3
CCCCCCCCCCCCCCCCC(=O)OC[C@H](COP(=O)([O-])OCC[N+](C)(C)C)OC(=O)CCCCCCCCCCCCCCCC [PCH, L-α-Phosphatidylcholine, diheptadecanoyl]	10	1
CCCCCCCCCCCCCCC(=O)OC[C@H](COP(=O)([O-])OCC[N+](C)(C)C)OC(=O)CCCCCCCCCCCCCC [PCP, L-α-Phosphatidylcholine, dipentadecanoyl]	5	2
CCCCCCCCCCCCCCCCC(=O)OC[C@H](COP(=O)(O)OCCN)OC(=O)CCCCCCCCCCCCCCCC [PEH, L-α-Phosphatidylethanolamine, diheptadecanoyl]	12	2
CCCCCCCCCCCCCC(=O)OC[C@H](COP(=O)(O)OCCN)OC(=O)CCCCCCCCCCCCC [PEM, L-α-Phosphatidylethanolamine, dimyristoyl]	7	1

same assay, conditions: serum day 21 after booster; control KLH + Saline = 1

SMILES	Day 21 Results IgA, score as multiples of the control response	Day 21 Results IgG, score as multiples of the control response	Day 21 Results IgM, score as multiples of the control response
CCCCCCCCCCCCCCCCC(=O)OC[C@H](COP(=O)(O)O)OC(=O)CCCCCCCCCCCCCCCC [PAH, L-α-Phosphatidicacid, diheptadecanoyl]	2	6	2
CCCCCCCCCCCCCC(=O)OC[C@H](COP(=O)(O)O)OC(=O)CCCCCCCCCCCCC [PAM, L-α-Phosphatidicacid, dimyristoyl]	1	6	1
CCCCCCCCCCCCCCCC(=O)N[C@@H](CO[C@@H]1O[C@H](CO)[C@@H](O)[C@H](O)[C@H]1O)[C@H](O)CCCCCCCCCCCCCCC [PC, N-Palmitoyl dihydroglucocerebroside]	3	12	3
CCCCCCCCCCCCCCCCC(=O)OC[C@H](COP(=O)([O-])OCC[N+](C)(C)C)OC(=O)CCCCCCCCCCCCCCCC [PCH, L-α-Phosphatidylcholine, diheptadecanoyl]	2	10	2
CCCCCCCCCCCCCCC(=O)OC[C@H](COP(=O)([O-])OCC[N+](C)(C)C)OC(=O)CCCCCCCCCCCCCC [PCP, L-α-Phosphatidylcholine, dipentadecanoyl]	2	3	1
CCCCCCCCCCCCCCCCC(=O)OC[C@H](COP(=O)(O)OCCN)OC(=O)CCCCCCCCCCCCCCCC [PEH, L-α-Phosphatidylethanolamine, diheptadecanoyl]	2	7	1
CCCCCCCCCCCCCC(=O)OC[C@H](COP(=O)(O)OCCN)OC(=O)CCCCCCCCCCCCC [PEM, L-α-Phosphatidylethanolamine, dimyristoyl]	2	6	2

same assay, conditions: sum of the six IgA, IgG, IgM scores of day 7 and day 21; control KLH + Saline = 6

SMILES	Ranking Total
CCCCCCCCCCCCCCCCC(=O)OC[C@H](COP(=O)(O)O)OC(=O)CCCCCCCCCCCCCCCC [PAH, L-α-Phosphatidicacid, diheptadecanoyl]	21
CCCCCCCCCCCCCC(=O)OC[C@H](COP(=O)(O)O)OC(=O)CCCCCCCCCCCCC [PAM, L-α-Phosphatidicacid, dimyristoyl]	18
CCCCCCCCCCCCCCCC(=O)N[C@@H](CO[C@@H]1O[C@H](CO)[C@@H](O)[C@H](O)[C@H]1O)[C@H](O)CCCCCCCCCCCCCCC [PC, N-Palmitoyl dihydroglucocerebroside]	56
CCCCCCCCCCCCCCCCC(=O)OC[C@H](COP(=O)([O-])OCC[N+](C)(C)C)OC(=O)CCCCCCCCCCCCCCCC [PCH, L-α-Phosphatidylcholine, diheptadecanoyl]	43
CCCCCCCCCCCCCCC(=O)OC[C@H](COP(=O)([O-])OCC[N+](C)(C)C)OC(=O)CCCCCCCCCCCCCC [PCP, L-α-Phosphatidylcholine, dipentadecanoyl]	22
CCCCCCCCCCCCCCCCC(=O)OC[C@H](COP(=O)(O)OCCN)OC(=O)CCCCCCCCCCCCCCCC [PEH, L-α-Phosphatidylethanolamine, diheptadecanoyl]	28
CCCCCCCCCCCCCC(=O)OC[C@H](COP(=O)(O)OCCN)OC(=O)CCCCCCCCCCCCC [PEM, L-α-Phosphatidylethanolamine, dimyristoyl]	35
